Assay results taken from patent publication US20180110754A1, “CENICRIVIROC FOR THE TREATMENT OF FIBROSIS” (Tobira Therapeutics, Inc., priority 2015, published 2018).

Assays:
[1] = Study 202: treatment-emergent laboratory abnormalities (DAIDS grades; CPK, ALT, AST, bilirubin); assay type: in vivo
Excerpt: The number of subjects with graded treatment-emergent laboratory abnormalities in selected liver parameters of interest is shown in Table 34. No Grade 4 ALT or AST elevations were observed. Except for one Grade 3 AST elevation, all ALT and AST elevations were Grade 1 or Grade 2. […] All abnormalities in bilirubin were Grade 1 or Grade 2. […]

[2] = system: APRI and FIB-4 scores; experiment: Study 202 post-hoc APRI and FIB-4 fibrosis index scores; assay type: in vivo, human
Description: APRI and FIB-4 scores were calculated. Change in score category from baseline (BL) to Weeks 24 and 48 was assessed in patients with non-missing data. Correlations between changes from BL in APRI and FIB-4 scores, and MCP-1 (CCR2 ligand) and sCD14 (inflammatory biomarker) levels were evaluated.

[3] = system: HIV-1; experiment: Study 202 Phase 2b: virologic response (HIV-1 RNA <50 copies/mL, FDA Snapshot); assay type: in vivo, human
Excerpt: Subjects with a history of HIV-2, hepatitis B and/or C, cirrhosis of the liver or any known active or chronic active liver disease were excluded from the study.
The primary efficacy endpoint was virologic response at Week 24, defined as HIV-1 RNA<50 copies/mL using the FDA Snapshot Algorithm.

[4] = CVC 100 mg (N = 58), through Week 48
[5] = CVC 200 mg (N = 57), through Week 48

SMILES: CCCCOCCOc1ccc(-c2ccc3c(c2)/C=C(/C(=O)Nc2ccc([S@@+]([O-])Cc4cncn4CCC)cc2)CCCN3CC(C)C)cc1 [CVC, (S)-8-[4-(2-Butoxyethoxy)phenyl]-1-isobutyl-N-(4-{[(1-propyl-1H-imidazol-5-yl)methyl]sulfinyl}phenyl)-1,2,3,4-tetrahydro-1-benzazocine-5-carboxamide]
- AST, worst Grade 2, n subjects [1, 4]: 2
- AST, worst Grade 3, n subjects [1, 4]: 1
- AST, worst Grade 4, n subjects [1, 4]: 0
- Alanine aminotransferase (ALT) abnormality, any grade, n subjects [1, 4]: 7
- Any Grade 3 or Grade 4 laboratory abnormality, n subjects [1, 4]: 7
- Aspartate aminotransferase (AST) abnormality, any grade, n subjects [1, 4]: 11
- Aspartate aminotransferase (AST) increased (Grade 3 or 4), n subjects [1, 4]: 1
- Bilirubin abnormality, any grade, n subjects [1, 4]: 4
- Bilirubin, worst Grade 1, n subjects [1, 4]: 1
- Bilirubin, worst Grade 2, n subjects [1, 4]: 3
- Bilirubin, worst Grade 3, n subjects [1, 4]: 0
- Bilirubin, worst Grade 4, n subjects [1, 4]: 0
- CPK increased, worst Grade 3, n subjects [1, 4]: 2
- CPK increased, worst Grade 4, n subjects [1, 4]: 1
- Creatine phosphokinase (CPK) increased (Grade 3 or 4), n subjects [1, 4]: 3
- Fibrinogen decreased (Grade 3 or 4), n subjects [1, 4]: 0
- Fibrinogen decreased, worst Grade 3, n subjects [1, 4]: 0
- Fibrinogen decreased, worst Grade 4, n subjects [1, 4]: 0
- Hemoglobin decreased (Grade 3 or 4), n subjects [1, 4]: 1
- Hemoglobin decreased, worst Grade 3, n subjects [1, 4]: 0
- Hemoglobin decreased, worst Grade 4, n subjects [1, 4]: 1
- Neutrophils decreased (Grade 3 or 4), n subjects [1, 4]: 2
- Neutrophils decreased, worst Grade 3, n subjects [1, 4]: 2
- Neutrophils decreased, worst Grade 4, n subjects [1, 4]: 0
- Phosphate decreased (Grade 3 or 4), n subjects [1, 4]: 2
- Phosphate decreased, worst Grade 3, n subjects [1, 4]: 2
- Phosphate decreased, worst Grade 4, n subjects [1, 4]: 0
- Prothrombin time/INR increased, worst Grade 3, n subjects [1, 4]: 0
- Prothrombin time/INR increased, worst Grade 4, n subjects [1, 4]: 1
- Subjects with Grade 3 or 4 increases in CPK ([1]; CVC 200 mg): 9 subjects
- Any graded (Grade 1-4) treatment-emergent laboratory abnormality, n subjects ([1]; CVC 200 mg (N = 57)): 55
- Laboratory abnormality, worst Grade 1, n subjects ([1]; CVC 200 mg (N = 57)): 16
- Laboratory abnormality, worst Grade 2, n subjects ([1]; CVC 200 mg (N = 57)): 27
- Laboratory abnormality, worst Grade 3 (Any Grade 3 abnormality), n subjects ([1]; CVC 200 mg (N = 57)): 9
- Laboratory abnormality, worst Grade 4 (Any Grade 4 abnormality), n subjects ([1]; CVC 200 mg (N = 57)): 3
- ALT, worst Grade 1, n subjects [1, 5]: 6
- ALT, worst Grade 2, n subjects [1, 5]: 2
- ALT, worst Grade 3, n subjects [1, 5]: 0
- ALT, worst Grade 4, n subjects [1, 5]: 0
- AST, worst Grade 1, n subjects [1, 5]: 6
- AST, worst Grade 2, n subjects [1, 5]: 4
- AST, worst Grade 3, n subjects [1, 5]: 0
- AST, worst Grade 4, n subjects [1, 5]: 0
- Alanine aminotransferase (ALT) abnormality, any grade, n subjects [1, 5]: 8
- Any Grade 3 or Grade 4 laboratory abnormality, n subjects [1, 5]: 12
- Aspartate aminotransferase (AST) abnormality, any grade, n subjects [1, 5]: 10
- Aspartate aminotransferase (AST) increased (Grade 3 or 4), n subjects [1, 5]: 0
- Bilirubin abnormality, any grade, n subjects [1, 5]: 3
- Bilirubin, worst Grade 1, n subjects [1, 5]: 2
- Bilirubin, worst Grade 2, n subjects [1, 5]: 1
- Bilirubin, worst Grade 3, n subjects [1, 5]: 0
- Bilirubin, worst Grade 4, n subjects [1, 5]: 0
- CPK increased, worst Grade 3, n subjects [1, 5]: 6
- CPK increased, worst Grade 4, n subjects [1, 5]: 3
- Creatine phosphokinase (CPK) increased (Grade 3 or 4), n subjects [1, 5]: 9
- Fibrinogen decreased (Grade 3 or 4), n subjects [1, 5]: 2
- Fibrinogen decreased, worst Grade 3, n subjects [1, 5]: 2
- Fibrinogen decreased, worst Grade 4, n subjects [1, 5]: 0
- Hemoglobin decreased (Grade 3 or 4), n subjects [1, 5]: 0
- Hemoglobin decreased, worst Grade 3, n subjects [1, 5]: 0
- Hemoglobin decreased, worst Grade 4, n subjects [1, 5]: 0
- Neutrophils decreased (Grade 3 or 4), n subjects [1, 5]: 0
- Neutrophils decreased, worst Grade 3, n subjects [1, 5]: 0
- Neutrophils decreased, worst Grade 4, n subjects [1, 5]: 0
- Phosphate decreased (Grade 3 or 4), n subjects [1, 5]: 2
- Phosphate decreased, worst Grade 3, n subjects [1, 5]: 2
- Phosphate decreased, worst Grade 4, n subjects [1, 5]: 0
- Prothrombin time/INR increased, worst Grade 3, n subjects [1, 5]: 0
- Prothrombin time/INR increased, worst Grade 4, n subjects [1, 5]: 0
- Patients in APRI category 0.5-1.5 ([2]; Baseline): 14%
- Patients in APRI category >1.5 ([2]; Baseline): 2%
- Patients in FIB-4 category 1.45-3.25 ([2]; Baseline): 17%
- Patients in FIB-4 category <1.45 ([2]; Baseline): 82%
- Patients in FIB-4 category >3.25 ([2]; Baseline): 1%
- Patients in APRI category <0.5 ([2]; Baseline, CVC pooled 100/200 mg or EFV): 84%
- Patients in APRI category 0.5-1.5 ([2]; Week 24): 7%
- Patients in APRI category <0.5 ([2]; Week 24): 93%
- Patients in FIB-4 category 1.45-3.25 ([2]; Week 24): 7%
- Patients in FIB-4 category <1.45 ([2]; Week 24): 93%
- Patients with APRI decreased 1 category from baseline ([2]; Week 24): 14%
- Patients with FIB-4 decreased 1 category from baseline ([2]; Week 24): 13%
- Patients in APRI category 0.5-1.5 ([2]; Week 48): 8%
- Patients in APRI category <0.5 ([2]; Week 48): 91%
- Patients in APRI category >1.5 ([2]; Week 48): 1%
- Patients in FIB-4 category 1.45-3.25 ([2]; Week 48): 5%
- Patients in FIB-4 category <1.45 ([2]; Week 48): 94%
- Patients in FIB-4 category >3.25 ([2]; Week 48): 1%
- Patients with APRI decreased 1 category from baseline ([2]; Week 48): 10%
- Patients with FIB-4 decreased 1 category from baseline ([2]; Week 48): 14%
- Subjects with improvements in APRI and FIB-4 scores over time ([2]; all CVC-treated subjects (pooled 100 mg and 200 mg)): ≥ 10%
- Virologic success (HIV-1 RNA <50 copies/mL) ([3]; CVC 100 mg + FTC/TDF, Week 24): 76%
- Virologic success (HIV-1 RNA <50 copies/mL) ([3]; CVC 100 mg + FTC/TDF, Week 48): 68%
- Virologic success (HIV-1 RNA <50 copies/mL) ([3]; CVC 200 mg + FTC/TDF, Week 24): 73%
- Virologic success (HIV-1 RNA <50 copies/mL) ([3]; CVC 200 mg + FTC/TDF, Week 48): 64%
